Paper PMC6385376, “Coupling of a viral K^+-channel with a glutamate-binding-domain highlights the modular design of ionotropic glutamate-receptors” (Communications Biology, 2019)
pIC50: −log10 of the molar value. “And” between values parts separate entries of the source, which are not always exact repeats. Equal values may be shown once. Read-outs that look alike come from different tables or passages of the source.

What was measured:
Type in all cases: cell-based
[1] = test system: GluATCV (GluA1/KcvATCV-1 chimera); experiment: Two-electrode voltage clamp of GluATCV expressing Xenopus oocytes
Text: (§1) The GluATCV constructs were generated by replacing the nucleotide sequence encoding amino acids 538–629 (GluATCVlong), 634 (GluATCV short) and 642 (GluATCV) of the mature GluA1 by the KcvATCV-1 sequence with the use of XhoI and NheI. The GluATCV^ΔNTD and GluATCV^ΔM4 constructs were generated by excising the nucleotide sequence encoding amino acids 19–394 and upstream of 784 of the mature GluA1 by deletion PCR, respectively. All constructs were confirmed by DNA sequencing (Seqlab, Göttingen, Germany).
(§2) cRNAs were synthesized by using the AmpliCap-Max™ T7 High Yield Message Maker Kit of Cellscript (Madison, Wi, USA) with the plasmid linearized by AatII. X. laevis oocytes were used for two electrode voltage-clamp (TEVC) electrophysiology as previously described. Oozytes were surgically obtained from female X. laevis after anesthesia with 0.1% Tricaine in water under the approval of the Technical University of Darmstadt (Agreement V54-19c20/15 DA8/Anz. 20). After the harvest, oocytes were incubated for 1 h in 0.8 mg collagenase in frog ringer [96 mM NaCl, 2 mM KCl, 1 mM CaCl2,1 mM MgCl2, and 5 mM HEPES (pH 7.4 with NaOH)][53]. After the treatment and a washing step with Ca^2+ free ringer [96 mM NaCl, 2 mM KCl,1 mM MgCl2, and 5 mM HEPES (pH 7.4 with NaOH)] oocytes of stage V and VI were selected and defolliculated by pipetting with a burned glass-Pasteur-pipette. For electrophysiological analysis, oocytes were injected with 50 ng in a volume of 50 nl of the respective construct. After injection the oocytes were incubated in ND-96 solution (96 mM NaCl, 2 mM KCl, 1 mM CaCl2, 1 mM MgCl2, 5 mM HEPES, pH 7.4 with NaOH) at 18 °C for 3–5 days until the electrophysiological measurements. The TEVC recordings were performed at room temperature with an Axoclamp 900A amplifier, digitized with a Digidata 1550A at 5 kHz after low-pass filtering at 200 Hz and recorded with Clampex 10.7 (Molecular Devices, San Jose, USA). For recording the microelectrodes were filled with 3 M KCl (resistance 0.8–2.8 MΩ in external solution) and the oocytes were clamped at −70 mV. The external solution was a modified ringer solution containing 100 mM KCl; 10 mM HEPES; 1.8 mM CaCl2; 1 mM MgCl2 (pH 7.4 with KOH) alone or containing agonist.
(§3) Permeability ratio was calculated by the shift of the reversal potential with the Goldman–Hodgkin–Katz equation under bi-ionic conditions PNa^+/PK^+=expΔErev*F/R*T [27]. The amplitude was measured with KielPatch and also the open probability in bilayer measurements was analyzed by the build in Hinkley-jump-detector of KielPatch (http://www.zbm.uni-kiel.de/aghansen/software.html). Values given represent means ± SEM. Statistical significance was determined at the p < 0.05 (*), p < 0.01 (**), and p < 0.001 (***) levels using a Student’s two-tailed, unpaired two-side t-test or ANOVA (in case of more groups) and a Tukey post-hoc analysis (Prism 7.00). All data are shown as boxplots with a center line representing the median; box limits are the upper and lower quartiles; whiskers representing min and max.

[2] = test system: GluATCVshort (GluA1/KcvATCV-1 chimera); experiment: Two-electrode voltage clamp of GluATCVshort expressing Xenopus oocytes
Text: as §1
(§4) cRNAs were synthesized by using the AmpliCap-Max™ T7 High Yield Message Maker Kit of Cellscript (Madison, Wi, USA) with the plasmid linearized by AatII. X. laevis oocytes were used for two electrode voltage-clamp (TEVC) electrophysiology as previously described. […] The TEVC recordings were performed at room temperature with an Axoclamp 900A amplifier, digitized with a Digidata 1550A at 5 kHz after low-pass filtering at 200 Hz and recorded with Clampex 10.7 (Molecular Devices, San Jose, USA). […]
(§5) Permeability ratio was calculated by the shift of the reversal potential with the Goldman–Hodgkin–Katz equation under bi-ionic conditions PNa^+/PK^+=expΔErev*F/R*T [27]. The amplitude was measured with KielPatch and also the open probability in bilayer measurements was analyzed by the build in Hinkley-jump-detector of KielPatch (http://www.zbm.uni-kiel.de/aghansen/software.html). […]

[3] = molecular target: GluATCV* (GluATCV G614S/F615L) (Rattus norvegicus, UniProt P19490, L497Y); conditions: GluATCV* oocytes; for Glutamate-induced fraction of the Ba^2+-block (IGlu/IBa): fraction of total Ba^2+-sensitive current
GluATCV* (GluATCV G614S/F615L), sequence (A7K9J5 entry or part of it G77S/F78L): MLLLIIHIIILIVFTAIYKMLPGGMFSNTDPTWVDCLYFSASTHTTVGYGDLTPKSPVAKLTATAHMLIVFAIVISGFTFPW
GluATCV* (GluATCV G614S/F615L), sequence (P19490 other isoform, or with tags, fused parts or gaps L497Y): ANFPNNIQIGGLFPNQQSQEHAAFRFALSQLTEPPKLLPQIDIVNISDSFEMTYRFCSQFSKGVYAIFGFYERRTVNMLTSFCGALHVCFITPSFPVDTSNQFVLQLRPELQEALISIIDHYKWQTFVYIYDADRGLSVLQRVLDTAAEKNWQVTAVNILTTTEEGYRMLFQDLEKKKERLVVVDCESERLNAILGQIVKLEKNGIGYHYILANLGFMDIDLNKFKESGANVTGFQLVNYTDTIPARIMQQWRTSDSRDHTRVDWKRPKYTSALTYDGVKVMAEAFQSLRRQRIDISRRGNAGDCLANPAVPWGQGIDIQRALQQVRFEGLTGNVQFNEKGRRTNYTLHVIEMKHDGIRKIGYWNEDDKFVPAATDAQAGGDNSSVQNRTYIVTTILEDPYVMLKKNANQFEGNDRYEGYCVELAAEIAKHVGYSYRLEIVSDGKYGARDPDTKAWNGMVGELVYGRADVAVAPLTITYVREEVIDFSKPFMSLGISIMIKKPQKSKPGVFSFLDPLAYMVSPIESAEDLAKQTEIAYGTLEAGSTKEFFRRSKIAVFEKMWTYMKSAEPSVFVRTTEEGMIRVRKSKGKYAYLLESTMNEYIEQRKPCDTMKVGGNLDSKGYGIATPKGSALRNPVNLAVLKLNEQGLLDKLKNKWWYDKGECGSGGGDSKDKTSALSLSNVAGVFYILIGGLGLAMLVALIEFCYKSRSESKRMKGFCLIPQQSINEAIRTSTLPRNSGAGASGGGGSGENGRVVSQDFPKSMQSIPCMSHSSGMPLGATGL
Text: as §1, §2, §3

[4] = molecular target: T1, GluA1 glutamate receptor carrying the mutation L479Y (Rattus norvegicus, UniProt P19490, L497Y); experiment: Two-electrode voltage clamp of GluA1 expressing Xenopus oocytes; conditions: CNQX IC50, GluA1 (L479Y) oocytes, in the presence of 5 µM glutamate (EC50), n = 5
T1 construct: expressed in transfected cells; host or cells: Xenopus laevis oocytes (cRNA injection)
T1 sequence (P19490 19-907 L497Y): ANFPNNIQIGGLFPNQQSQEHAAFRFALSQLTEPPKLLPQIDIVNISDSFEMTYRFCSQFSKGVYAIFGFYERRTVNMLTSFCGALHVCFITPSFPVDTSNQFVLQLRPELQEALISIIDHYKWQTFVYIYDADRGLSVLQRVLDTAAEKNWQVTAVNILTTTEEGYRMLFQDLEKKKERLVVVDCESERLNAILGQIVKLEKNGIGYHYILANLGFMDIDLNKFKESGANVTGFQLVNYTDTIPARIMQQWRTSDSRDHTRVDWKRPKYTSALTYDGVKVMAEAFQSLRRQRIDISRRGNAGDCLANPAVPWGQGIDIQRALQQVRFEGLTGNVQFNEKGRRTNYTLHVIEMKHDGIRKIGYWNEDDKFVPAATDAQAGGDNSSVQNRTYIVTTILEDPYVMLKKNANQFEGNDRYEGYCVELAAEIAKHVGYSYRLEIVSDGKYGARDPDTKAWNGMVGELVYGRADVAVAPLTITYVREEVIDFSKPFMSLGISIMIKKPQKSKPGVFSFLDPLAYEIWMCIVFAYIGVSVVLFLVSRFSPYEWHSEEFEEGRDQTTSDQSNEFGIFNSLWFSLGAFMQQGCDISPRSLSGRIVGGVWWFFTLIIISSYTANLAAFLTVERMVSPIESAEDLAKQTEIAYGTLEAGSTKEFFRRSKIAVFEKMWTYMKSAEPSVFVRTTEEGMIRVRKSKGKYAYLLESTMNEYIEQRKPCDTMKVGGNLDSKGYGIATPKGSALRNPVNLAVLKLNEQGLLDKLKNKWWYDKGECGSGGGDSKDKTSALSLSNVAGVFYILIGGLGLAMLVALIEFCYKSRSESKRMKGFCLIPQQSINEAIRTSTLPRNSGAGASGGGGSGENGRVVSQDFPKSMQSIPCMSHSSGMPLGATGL
Text: as §1, §4, §5

[5] = test system: GluATCVlong (GluA1/KcvATCV-1 chimera); experiment: Two-electrode voltage clamp of GluATCVlong expressing Xenopus oocytes
Text: as §1
as §4, with “described. Oozytes were surgically obtained from female X. laevis after anesthesia with 0.1% Tricaine in water under the approval of the Technical University of Darmstadt (Agreement V54-19c20/15 DA8/Anz. 20). After the harvest, oocytes were incubated for 1 h in 0.8 mg collagenase in frog ringer [96 mM NaCl, 2 mM KCl, 1 mM CaCl2,1 mM MgCl2, and 5 mM HEPES (pH 7.4 with NaOH)][53].” for “described.”

GluATCV*^ΔNTD = GluATCV*^ΔNTD (Rattus norvegicus, UniProt P19490, L497Y); conditions: GluATCV*^ΔNTD oocytes, saturating glutamate concentrations, n = 5
GluATCV*^ΔNTD, sequence (P19490 with tags, fused parts or gaps L497Y): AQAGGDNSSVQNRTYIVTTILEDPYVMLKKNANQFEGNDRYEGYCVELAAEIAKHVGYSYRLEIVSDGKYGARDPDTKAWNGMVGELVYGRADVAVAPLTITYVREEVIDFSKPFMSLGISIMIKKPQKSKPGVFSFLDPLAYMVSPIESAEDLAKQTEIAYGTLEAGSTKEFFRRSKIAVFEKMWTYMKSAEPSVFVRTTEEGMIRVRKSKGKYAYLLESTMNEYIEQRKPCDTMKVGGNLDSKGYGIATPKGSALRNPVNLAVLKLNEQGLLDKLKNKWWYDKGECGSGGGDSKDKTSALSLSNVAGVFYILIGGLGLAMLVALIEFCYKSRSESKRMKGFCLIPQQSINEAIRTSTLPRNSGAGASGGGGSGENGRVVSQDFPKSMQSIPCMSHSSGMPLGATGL
GluATCV*^ΔNTD, sequence (A7K9J5 1-82 partner): as the sequence (A7K9J5 entry or part of it G77S/F78L) above
Text: as §1, §2, §3

SMILES: [Ba+2] [Ba^2+]
- Maximal Ba^2+-sensitive currents [1]: 1.0 ± 0.3 µA
- Block of initial leakage and Glu-evoked currents by Ba^2+ ([1]; 500 µM Ba^2+): could be blocked
- Ba^2+-block of the leakage current ([1]; −70 mV, n = 5): 84.4 ± 2.3%
- Ba^2+-block of the leakage current ([2]; −70 mV, absence of agonist, 500 µM Ba^2+, n = 5): 93.5 ± 1.6%
- Block of glutamate-induced and leakage currents by Ba^2+ [3]: could be efficiently blocked
- Maximal Ba^2+-sensitive currents [3]: 0.8 ± 0.2 µA
- Ba^2+-block of the leakage current ([3]; −70 mV, n = 5): 32.9 ± 10.8*** %

SMILES: N#Cc1cc2nc(O)c(O)nc2cc1[N+](=O)[O-] [CNQX, 6-cyano-7-nitroquinoxaline-2,3-dione]
- pIC50 [4]: 5.66 and 5.70

SMILES: N[C@@H](CCC(=O)O)C(=O)O [glutamate, L-glutamate]
- Glutamate-induced fraction of the Ba^2+-block (IGlu/IBa) ([1]; fraction of total Ba^2+-sensitive current, n = 5): 36.4 ± 4.6%
- Glu-elicited current amplitude ([1]; −70 mV, n = 10): 0.4 ± 0.3 µA
- Response to Glu application [5]: remained insensitive
- Currents in response to glutamate ([2]; 1 mM glutamate): could not elicit any currents
- Glutamate-induced fraction of the Ba^2+-block (IGlu/IBa) ([3]; n = 5): 68.2 ± 5.2** %
- Glutamate-induced fraction of the Ba^2+-block (IGlu/IBa) ([3]; n = 5, listed as Glu): 68.2 ± 5.2%
- Glu-inducible current amplitude (IGlu) ([3]; n = 5): 0.7 ± 0.2 µA
- Imax (GluATCV*^ΔNTD): 1.0 ± 0.26 µA
